The values that follow come from patent publication US20030078212A1, “PHARMACEUTICAL COMPOSITIONS CONTAINING POLY(ADP-RIBOSE) GLYCOHYDROLASE INHIBITORS AND METHODS OF USING THE SAME” (priority 1998, published 2003).

The subject of data set [1] is ischemia and reperfusion of the heart. The following applies: rabbits, cited from earlier work.
For data set [2], the system named is endotoxic shock. To be noted: cited from earlier work.
Data set [3] relates to cell viability, glucose metabolism, and DNA synthesis. To be noted: cited from earlier work.
Data set [4] relates to human fibroblast cells lines (W138 or BJ cells). Put plainly: Extending proliferative capacity and lifespan of cells. It counts as cell-based. As to the method:
At the time of subdivision, the media is aspirated, and the cells rinsed with phosphate buffer saline (PBS) and then trypsinized. The cells are counted with a Coulter counter and plated at a density of 10^5 cells per cm^2 in 6-well tissue culture plates in DMEM/199 medium supplemented with 10% bovine calf serum and varying amounts (0.10 μM, and 1 mM: from a 100×stock solution in DMEM/M199 medium) of a PARG inhibitor. This process is repeated every 7 days until the cell appear to stop dividing. The untreated (control) cells reach senescence and stop dividing after about 40 days in culture. […] The cells treated with 1 mM 3-AB will still divide after 60 days in culture.

The test system of data set [5] is Colitis. The following applies: rats; colitis by trinitrobenzene sulfonic acid in 50% ethanol; cited from earlier work.

As to `Oc1cccc2c(O)nccc12` [1,5-dihydroxyisoquinoline], in data set [1] (1 mg/kg), the “reduction in infarct size” value was 38-48%.
As for `NC(=O)c1cccnc1` [nicotinamide], the “delayed, NO-mediated vascular failure” value in data set [2] is listed as “protects against delayed, NO-mediated vascular failure in endotoxic shock”.
For the molecule `NC(=O)c1ccccc1` [benzamide], the “additional metabolic effects (side effects)” value in data set [3] was “affect cell viability, glucose metabolism, and DNA synthesis”.
With `COc1cc(C(=O)OC[C@H]2OC(OC(=O)c3cc(OC)c(OC)c(OC)c3)[C@H](OC(=O)c3cc(OC)c(OC)c(OC)c3)[C@@H](OC(=O)c3cc(OC)c(OC)c(OC)c3)[C@@H]2OC(=O)c2cc(OC)c(OC)c(OC)c2)cc(OC)c1OC` (stereo partly drawn) [Example 4, 1,2,3,4,6-Penta-O-(3,4,5-Trimethoxybenzoyl)-D-Glucopyranose], the melting point lay in the range of 85 to 90 °C.
In the case of `NC(=O)c1cccc(N)c1` [3-aminobenzamide], the “effect on lifespan of the cells” value in data set [4] (10 μM) was “little or no effect”; in data set [4] (100 μM), “lengthen the lifespan of the cells”. For the same molecule, in data set [4] (1 mM), the “effect on lifespan and proliferative capacity of the cells” value was “dramatically increases the lifespan and proliferative capacity of the cells”. Moreover, the “time in culture at which cells still divide” value in data set [4] (1 mM, untreated cells stop dividing after about 40 days) is on record as greater than 60 days. In data set [5], the “inflammatory response, morphology and energetic status of the distal colon” value was “reduced the inflammatory response and restored the morphology and the energetic status of the distal colon”. Also, the “reduction in infarct size in the heart” value in data set [1] (single injection 10 mg/kg, one minute before occlusion or one minute before reperfusion) is listed as 32-42%. In addition, the “additional metabolic effects (side effects)” value in data set [3] is “affect cell viability, glucose metabolism, and DNA synthesis”.
